Test results taken from US8716284B2, “Adamantyl diamide derivatives and uses of same” (H. Lundbeck A/S, priority 2008, dated 2014).

These compounds were tested against T1, rat metabotropic glutamate receptor 5 (mGluR5) (Rattus norvegicus, UniProt P31424) (assay: Calcium mobilization assay (FLIPR) for negative or positive allosteric activity, HEK 293 cells). Conditions: HEK293, negative allosteric modulation, inhibition of EC80 glutamate response; read-out: FLIPR maximum inhibition.
T1 construct: expressed in transfected cells; host or cells: HEK 293
T1 sequence (P31424 21-1171 isoform P31424-2 limits assumed): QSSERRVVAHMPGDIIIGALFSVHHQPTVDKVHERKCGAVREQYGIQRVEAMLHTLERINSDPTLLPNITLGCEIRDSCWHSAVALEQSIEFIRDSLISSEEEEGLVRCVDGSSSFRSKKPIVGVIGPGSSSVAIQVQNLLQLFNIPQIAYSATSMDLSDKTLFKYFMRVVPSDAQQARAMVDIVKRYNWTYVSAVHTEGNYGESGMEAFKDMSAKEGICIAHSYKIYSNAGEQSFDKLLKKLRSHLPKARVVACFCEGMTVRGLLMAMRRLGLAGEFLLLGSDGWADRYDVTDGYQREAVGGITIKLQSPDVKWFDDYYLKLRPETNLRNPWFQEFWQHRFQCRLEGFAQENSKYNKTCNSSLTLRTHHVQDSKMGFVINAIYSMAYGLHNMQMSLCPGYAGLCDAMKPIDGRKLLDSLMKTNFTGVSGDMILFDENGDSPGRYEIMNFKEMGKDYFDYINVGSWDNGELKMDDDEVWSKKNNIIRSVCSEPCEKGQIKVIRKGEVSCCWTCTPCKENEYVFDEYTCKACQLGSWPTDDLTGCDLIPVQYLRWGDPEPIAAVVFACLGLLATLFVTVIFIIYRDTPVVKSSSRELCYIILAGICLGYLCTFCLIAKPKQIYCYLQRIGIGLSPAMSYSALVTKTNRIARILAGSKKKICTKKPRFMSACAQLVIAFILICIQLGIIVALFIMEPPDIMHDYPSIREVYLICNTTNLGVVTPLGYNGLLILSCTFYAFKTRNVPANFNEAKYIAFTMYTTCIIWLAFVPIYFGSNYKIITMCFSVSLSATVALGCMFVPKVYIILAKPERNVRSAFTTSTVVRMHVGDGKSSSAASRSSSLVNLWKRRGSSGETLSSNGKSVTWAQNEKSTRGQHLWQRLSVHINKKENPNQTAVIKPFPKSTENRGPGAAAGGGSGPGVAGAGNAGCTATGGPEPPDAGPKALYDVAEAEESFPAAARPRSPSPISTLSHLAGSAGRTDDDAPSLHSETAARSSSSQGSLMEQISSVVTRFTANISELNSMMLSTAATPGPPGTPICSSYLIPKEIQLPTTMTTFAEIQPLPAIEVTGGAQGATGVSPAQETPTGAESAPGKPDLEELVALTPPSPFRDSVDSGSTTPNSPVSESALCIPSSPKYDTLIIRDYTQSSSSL
Type: cell-based
Outline: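 Peak Fluo-4 calcium signal over 3 min at room temperature, minus basal, fitted by Hill equation, in stable rat mGluR5 HEK 293 cells (HBSS/HEPES pH 7.4, BSA, probenecid). Inhibition scored against EC80 glutamate, potentiation against EC20 glutamate, glutamate given with compound.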

**Q.** `Cc1cccc(C(=O)NC23CC4CC(C2)CC(NC(=O)c2cccc(N(C)CCCN(C)C)n2)(C4)C3)n1` [Example 233, 6-[(3-Dimethylamino-propyl)-methyl-amino]-pyridine-2-carboxylic acid {3-[(6-methyl-pyridine-2-carbonyl)-amino]-adamantan-1-yl}-amide] was tested. Which Emax did it give?
**A.** Its Emax is 63 to 99%.

**Q.** Which Emax does the source give for `COc1cccc(C(=O)NC23CC4CC(C2)CC(NC(=O)c2cncc(C)n2)(C4)C3)c1` [Example 146, 6-Methyl-pyrazine-2-carboxylic acid [3-(3-methoxy-benzoylamino)-adamantan-1-yl]-amide] here?
**A.** Its Emax is 70 to 99%.

**Q.** With `CN(CCO)c1cccc(C(=O)NC23CC4CC(CC(NC(=O)c5cccc(F)c5)(C4)C2)C3)n1` [Example 213, 6-[(2-Hydroxy-ethyl)-methyl-amino]-pyridine-2-carboxylic acid [3-(3-fluoro-benzoylamino)-adamantan-1-yl]-amide] as the compound, how does the Emax read?
**A.** Its Emax is 63 to 99%.

**Q.** For `Cc1cccc(C(=O)NC23CC4CC(C2)CC(NC(=O)c2cccc(NCCCO)n2)(C4)C3)n1` [Example 210, 6-(3-Hydroxy-propylamino)-pyridine-2-carboxylic acid {3-[(6-methyl-pyridine-2-carbonyl)-amino]-adamantan-1-yl}-amide], which Emax is on record?
**A.** The Emax was 63 to 99%.

**Q.** `Cc1cccc(C(=O)NC23CC4CC(C2)CC(NC(=O)c2coc(C)n2)(C4)C3)n1` [Example 29, 6-Methyl-pyridine-2-carboxylic acid {3-[(2-methyl-oxazole-4-carbonyl)-amino]-adamantan-1-yl}-amide] was tested. Which Emax did it give?
**A.** The Emax was 63 to 99%.

**Q.** How did the Emax turn out when `CCn1ccc(C(=O)NC23CC4CC(CC(NC(=O)c5cccc(C)n5)(C4)C2)C3)n1` [Example 42, 6-Methyl-pyridine-2-carboxylic acid {3-[(1-ethyl-1H-pyrazole-3-carbonyl)-amino]-adamantan-1-yl}-amide] was run?
**A.** Its Emax is 63 to 99%.

**Q.** For `O=C(NC12CC3CC(C1)CC(NC(=O)C1CC1(F)F)(C3)C2)c1ccccn1` (centres unmarked) [Example 83, Pyridine-2-carboxylic acid {3-[(2,2-difluoro-cyclopropanecarbonyl)-amino]-adamantan-1-yl}-amide], which Emax is on record?
**A.** The Emax was 63 to 99%.

**Q.** `O=C(NC12CC3CC(C1)CC(NC(=O)c1nccc(C(F)(F)F)n1)(C3)C2)c1ccncn1` [Example 196, 4-Trifluoromethyl-pyrimidine-2-carboxylic acid {3-[(pyrimidine-4-carbonyl)-amino]-adamantan-1-yl}-amide] was tested. Which Emax did it give?
**A.** Its Emax is 63 to 99%.

**Q.** `COc1cccc(C(=O)NC23CC4CC(CC(NC(=O)c5cncc(C)n5)(C4)C2)C3)c1F` [Example 167, 6-Methyl-pyrazine-2-carboxylic acid [3-(2-fluoro-3-methoxy-benzoylamino)-adamantan-1-yl]-amide] was tested. Which Emax did it give?
**A.** Its Emax is 63 to 99%.

**Q.** For `Cc1cncc(C(=O)NC23CC4CC(CC(NC(=O)c5ccnc(F)c5)(C4)C2)C3)n1` [Example 160, 6-Methyl-pyrazine-2-carboxylic acid {3-[(2-fluoro-pyridine-4-carbonyl)-amino]-adamantan-1-yl}-amide], which Emax is on record?
**A.** Its Emax is 70 to 99%.

**Q.** With `Cc1cccc(C(=O)NC23CC4CC(CC(NC(=O)c5cc(Br)ccn5)(C4)C2)C3)n1` [Example 138, 6-Methyl-pyridine-2-carboxylic acid {3-[(4-bromo-pyridine-2-carbonyl)-amino]-adamantan-1-yl}-amide] as the compound, how does the Emax read?
**A.** Its Emax is 70 to 99%.

**Q.** For `O=C(NC12CC3CC(C1)CC(NC(=O)c1ccncn1)(C3)C2)c1ccccn1` [Example 60, Pyrimidine-4-carboxylic acid {3-[(pyridine-2-carbonyl)-amino]-adamantan-1-yl}-amide], which Emax is on record?
**A.** Its Emax is 63 to 99%.

**Q.** For `O=C(NC12CC3CC(C1)CC(NC(=O)c1ccc4ccccc4n1)(C3)C2)c1ccc2ccccc2n1` [Example 12, N,N′-(1,3-adamantylene)bis(quinoline-2-carboxamide)], which Emax is on record?
**A.** The Emax was 63 to 99%.

**Q.** Which Emax does the source give for `Cc1ccnc(C(=O)NC23CC4CC(C2)CC(NC(=O)c2cccc(C)n2)(C4)C3)c1` [Example 28, 4-Methyl-pyridine-2-carboxylic acid {3-[(6-methyl-pyridine-2-carbonyl)-amino]-adamantan-1-yl}-amide] here?
**A.** The Emax was 63 to 99%.

**Q.** With `Cc1cnc(C(=O)NC23CC4CC(C2)CC(NC(=O)c2ccn(C)n2)(C4)C3)cn1` [Example 18, 5-Methyl-pyrazine-2-carboxylic acid {3-[(1-methyl-1H-pyrazole-3-carbonyl)-amino]-adamantan-1-yl}-amide] as the compound, how does the Emax read?
**A.** The Emax was 63 to 99%.

**Q.** With `Cc1ccnc(C(=O)NC23CC4CC(CC(NC(=O)c5ccnc(C)n5)(C4)C2)C3)n1` [Example 193, 2-Methyl-pyrimidine-4-carboxylic acid {3-[(4-methyl-pyrimidine-2-carbonyl)-amino]-adamantan-1-yl}-amide] as the compound, how does the Emax read?
**A.** The Emax was 63 to 99%.

**Q.** `Cc1cccc(C(=O)NC23CC4CC(C2)CC(NC(=O)c2cccc(NCCN(C)C)n2)(C4)C3)n1` [Example 232, 6-(2-Dimethylamino-ethylamino)-pyridine-2-carboxylic acid {3-[(6-methyl-pyridine-2-carbonyl)-amino]-adamantan-1-yl}-amide] was tested. Which Emax did it give?
**A.** The Emax was 63 to 99%.

**Q.** `Cc1cccc(C(=O)NC23CC4CC(CC(NC(=O)c5ccc6occc6c5)(C4)C2)C3)n1` [Example 33, 6-Methyl-pyridine-2-carboxylic acid {3-[(benzofuran-5-carbonyl)-amino]-adamantan-1-yl}-amide] was tested. Which Emax did it give?
**A.** Its Emax is 63 to 99%.

**Q.** How did the Emax turn out when `Cc1cncc(C(=O)NC23CC4CC(C2)CC(NC(=O)c2cc(F)ccc2F)(C4)C3)n1` [Example 148, 6-Methyl-pyrazine-2-carboxylic acid [3-(2,5-difluoro-benzoylamino)-adamantan-1-yl]-amide] was run?
**A.** The Emax was 70 to 99%.

**Q.** Which Emax does the source give for `Cc1cccc(C(=O)NC23CC4CC(C2)CC(NC(=O)c2cn5cc(Cl)ccc5n2)(C4)C3)n1` [Example 50, 6-Chloro-imidazo[1,2-a]pyridine-2-carboxylic acid {3-[(6-methyl-pyridine-2-carbonyl)-amino]-adamantan-1-yl}-amide] here?
**A.** Its Emax is 63 to 99%.

**Q.** How did the Emax turn out when `CN(C)C1CCN(c2cccc(C(=O)NC34CC5CC(CC(NC(=O)c6ccccn6)(C5)C3)C4)n2)C1` (centres unmarked) [Example 199, 6-(3-Dimethylamino-pyrrolidin-1-yl)-pyridine-2-carboxylic acid {3-[(pyridine-2-carbonyl)-amino]-adamantan-1-yl}-amide] was run?
**A.** Its Emax is 63 to 99%.

**Q.** How did the Emax turn out when `CN(CCO)c1cccc(C(=O)NC23CC4CC(CC(NC(=O)c5ccccn5)(C4)C2)C3)n1` [Example 202, 6-[(2-Hydroxy-ethyl)-methyl-amino]-pyridine-2-carboxylic acid {3-[(pyridine-2-carbonyl)-amino]-adamantan-1-yl}-amide] was run?
**A.** The Emax was 63 to 99%.

**Q.** With `Cc1ccnc(C(=O)NC23CC4CC(CC(NC(=O)c5ccncn5)(C4)C2)C3)n1` [Example 194, 4-Methyl-pyrimidine-2-carboxylic acid {3-[(pyrimidine-4-carbonyl)-amino]-adamantan-1-yl}-amide] as the compound, how does the Emax read?
**A.** The Emax was 63 to 99%.

**Q.** How did the Emax turn out when `Cc1cccc(C(=O)NC23CC4CC(C2)CC(NC(=O)c2ccn(C)n2)(C4)C3)n1` [Example 20, 6-Methyl-pyridine-2-carboxylic acid {3-[(1-methyl-1H-pyrazole-3-carbonyl)-amino]-adamantan-1-yl}-amide] was run?
**A.** The Emax was 63 to 99%.

**Q.** How did the Emax turn out when `Cc1cccc(C(=O)NC23CC4CC(C2)CC(NC(=O)c2cccc(N5CCC(O)CC5)n2)(C4)C3)n1` [Example 206, 4-Hydroxy-3,4,5,6-tetrahydro-2H-[1,2′]bipyridinyl-6′-carboxylic acid{3-[(6-methyl-pyridine-2-carbonyl)-amino]-adamantan-1-yl}-amide] was run?
**A.** Its Emax is 63 to 99%.

**Q.** `COCCCNc1cccc(C(=O)NC23CC4CC(CC(NC(=O)c5cccc(C)n5)(C4)C2)C3)n1` [Example 231, 6-(3-Methoxy-propylamino)-pyridine-2-carboxylic acid {3-[(6-methyl-pyridine-2-carbonyl)-amino]-adamantan-1-yl}-amide] was tested. Which Emax did it give?
**A.** Its Emax is 63 to 99%.

**Q.** Which Emax does the source give for `O=C(NC12CC3CC(C1)CC(NC(=O)c1ccnc(C(F)(F)F)n1)(C3)C2)c1ccccn1` [Example 112, 2-Trifluoromethyl-pyrimidine-4-carboxylic acid {3-[(pyridine-2-carbonyl)-amino]-adamantan-1-yl}-amide] here?
**A.** The Emax was 70 to 99%.

**Q.** For `O=C(NC12CC3CC(C1)CC(NC(=O)c1nccc(C(F)(F)F)n1)(C3)C2)c1ccccn1` [Example 113, 4-Trifluoromethyl-pyrimidine-2-carboxylic acid {3-[(pyridine-2-carbonyl)-amino]-adamantan-1-yl}-amide], which Emax is on record?
**A.** Its Emax is 70 to 99%.

**Q.** With `CN(C)C1CCN(c2cccc(C(=O)NC34CC5CC(CC(NC(=O)c6cccc(F)c6)(C5)C3)C4)n2)C1` (centres unmarked) [Example 217, 6-(3-Dimethylamino-pyrrolidin-1-yl)-pyridine-2-carboxylic acid [3-(3-fluoro-benzoylamino)-adamantan-1-yl]-amide] as the compound, how does the Emax read?
**A.** The Emax was 63 to 99%.

**Q.** With `Cc1cncc(C(=O)NC23CC4CC(C2)CC(NC(=O)c2cncc(C)n2)(C4)C3)c1` [Example 165, 6-Methyl-pyrazine-2-carboxylic acid {3-[(5-methyl-pyridine-3-carbonyl)-amino]-adamantan-1-yl}-amide] as the compound, how does the Emax read?
**A.** The Emax was 63 to 99%.

**Q.** Which Emax does the source give for `N#Cc1cccc(C(=O)NC23CC4CC(C2)CC(NC(=O)c2cccc(C#N)c2)(C4)C3)c1` [Example 5, N,N′-(1,3-adamantylene)bis(3-cyano-benzamide)] here?
**A.** Its Emax is 90 to 99%.

**Q.** For `O=C(NC12CC3CC(C1)CC(NC(=O)c1nccc(C(F)(F)F)n1)(C3)C2)c1cccc(F)c1` [Example 184, 4-Trifluoromethyl-pyrimidine-2-carboxylic acid [3-(3-fluoro-benzoylamino)-adamantan-1-yl]-amide], which Emax is on record?
**A.** The Emax was 63 to 99%.

**Q.** How did the Emax turn out when `O=C(NC12CC3CC(C1)CC(NC(=O)c1cn4cc(Cl)ccc4n1)(C3)C2)c1cccc(F)c1` [Example 98, 6-Chloro-imidazo[1,2-a]pyridine-2-carboxylic acid [3-(3-fluoro-benzoylamino)-adamantan-1-yl]-amide] was run?
**A.** The Emax was 63 to 99%.

Same assay, conditions: positive modulation, increase in EC20 glutamate response

**Q.** Which results are given for `Cc1cncc(C(=O)NC23CC4CC(CC(NC(=O)c5cc(-c6ccccc6)ncn5)(C4)C2)C3)n1` [Example 257, 6-Phenyl-pyrimidine-4-carboxylic acid {3-[(6-methyl-pyrazine-2-carbonyl)-amino]-adamantan-1-yl}-amide]?
**A.** EC50: 830 nM; maximum modulation: 120%
